{"source": "patent US11389396B2", "about": "“Tumescent antibiotic injection for treatment of chronic skin and soft tissue infections” (The Regents of the University of California, priority 2016, dated 2022)", "key": {"[1]": {"conditions": "in vivo; cited from earlier work"}, "MRSA strains": {"test_system": "MRSA strains", "conditions": "1 g/100 mL cefazolin in tumescent solution; cited from earlier work"}, "[2]": {"conditions": "healthy tissue; cited from earlier work"}, "[3]": {"assay": "CT images roughly every 10 min of 20 mL tumescent injections, local fraction of contrast", "experimental": "In a different experiment we took CT images roughly every 10 min instead of every hour in order to see the initially rapid dynamics. An axial cross-sectional image is shown in FIG. 14 before and after two 20 mL tumescent injections on symmetric sides of the anesthetized adult Yucatan pig's abdomen.\nThe initial rise is due to the spreading of the tumescent fluid after the completion of the injection into unexpanded tissue. […] We verified this by multiplying the total volume and mean curves to get a measure of the “total contrast” that remains localized in the tumescence (FIG. 15 bottom, left). Dividing the total contrast curve by its maximum yields the “Localized Fraction” curves of FIG. 15 (bottom, right)."}, "[4]": {"assay": "CT scans over seven hours of tumescent injections of saline containing iodine contrast", "format": "in vivo, Yucatan pig", "protocol": "To more accurately determine the timescale over which the local antibiotic concentration remains high, we performed CT scans over a long time period.\nThe figures are CTs viewing the abdomen of the pig with the head towards the top of the figure. Tumescent injections are seen as 4 rows, and 2 columns of large circular white regions, with injection volumes 20 mL, 10 mL, 5 mL and 2.5 mL from top row to bottom. There is one column of 4 tiny white dots along the center of the abdomen that are skin markers placed in the same axial plane as the location of the injections for reference. It is clear that the iodine concentration may remain high for several hours. While the 20 mL injections are clearly visible for 5 hours, the 2.5 mL injections are easily seen for only 3 hours.\nEach value along the lineout represents the max attenuation value below that point on a line perpendicular to the surface (Maximum Intensity Projection mode). For comparison, we measured the attenuation of a vial of pure infusate to be 500 HU, and the attenuation of normal subcutaneous tissue to be about −90 HU. A concentration equal to at least half the initial value (or attenuation of […]—half way between the extremes) is maintained for at least 4 hours."}}}
{"molecule": "CO/N=C(\\C(=O)N[C@@H]1C(=O)N2C(C(=O)O)=C(CSc3nc(=O)c(=O)[nH]n3C)CS[C@H]12)c1csc(N)n1", "note": "[Ceftriaxone]", "values": [{"measurement": "concentration shown to be safe, relative to 1 g/100 mL cefazolin", "setting": "[1]", "value": "35 times higher concentrations"}]}
{"molecule": "Cc1nnc(SCC2=C(C(=O)O)N3C(=O)[C@@H](NC(=O)Cn4cnnn4)[C@H]3SC2)s1", "note": "[cefazolin]", "values": [{"measurement": "concentration relative to the MIC", "setting": "MRSA strains", "value": "above the MIC for most, if not all, MRSA strains"}]}
{"molecule": "CNC[C@H](O)c1ccc(O)c(O)c1", "note": "[epinephrine]", "values": [{"measurement": "systemic absorption time extended by use of a vasoconstrictor", "setting": "[2]", "value": "> 8", "unit": "h"}]}
{"molecule": "II", "note": "[iodine]", "values": [{"measurement": "drop in the local fraction (take-up by lymph and capillaries)", "setting": "[3]; over the 70 minutes of the experiment, anesthetized adult Yucatan pig", "value": "~30", "unit": "%"}, {"measurement": "timescale of spontaneous spreading", "setting": "[3]; tumescent injection, CT", "value": "< 5", "unit": "min"}, {"measurement": "timescale of take up by the serum", "setting": "[3]; tumescent injection, CT", "value": "~1", "unit": "h"}, {"measurement": "time for which the injection is easily seen on CT", "setting": "[4]; 2.5 mL subcutaneous abdominal injection, saline with 2 g/100 mL iodine contrast, healthy adult Yucatan pig", "value": 3, "unit": "h"}, {"measurement": "time for which the injection is clearly visible on CT", "setting": "[4]; 20 mL subcutaneous abdominal injection, saline with 2 g/100 mL iodine contrast, healthy adult Yucatan pig", "value": 5, "unit": "h"}, {"measurement": "time for which a concentration of at least half the initial value is maintained", "setting": "[4]; CT lineouts, maximum intensity projection, attenuation 155 as half way point", "value": "at least 4 hours"}]}
